Tested on: fear-potentiated acoustic startle response in Fischer F344 rats
Test: Fear-potentiated startle response in rats
Format: in vivo, rat
Excerpt: The compounds of formula I can be administered to the animal in order to assess their effects on emotional reactivity.
Signs of decreased emotional reactivity to acoustic stimuli have been discovered in an animal model of fear potentiated acoustic startle. Anxiolytic-like activity—as assessed by decreased acoustic startle reactivity—was observed one hour after treatment with a compound of the formula I compared to vehicle (PEG400) control treatment and to active treatment with diazepam given orally. […] In human medicine, increased acoustic startle reactivity has been observed in patients suffering from PTSD anxiety compared to healthy subjects (Exaggerated acoustic startle reflex in Gulf War veterans with posttraumatic stress disorder, Am. J. Psychiatry (1996), 153(1), 64-68).
In the fear-potentiated startle procedure in rats, a neutral stimulus such as light is repetitively paired with an aversive stimulus such as mild foot shock. When an animal is presented with loud acoustic stimuli, enhanced startle responses are elicited when the startle stimulus is preceded by the light (a classically conditioned increase in fear). Benzodiazepine anxiolytics attenuate the response enhancement. Startle response was recorded by using auditory startle chambers. […]

| SMILES | startle response amplitude (oral 107 mg/kg, one hour after treatment, compared with vehicle (PEG400) group control 1) | startle response amplitude (oral 3 mg/kg, compared with vehicle group control 2) |
| --- | --- | --- |
| CNC(=O)[C@@H](c1ccccc1)N1CCc2cc(OC)c(OC)cc2[C@@H]1CCc1ccc(C(F)(F)F)cc1.Cl [Compound A, (R)-2-{(S)-6,7-dimethoxy-1-[2-(4-trifluoromethyl-phenyl)-ethyl]-3,4-dihydro-1H-isoquinolin-2-yl}-N-methyl-2-phenyl-acetamide hydrochloride] | reduces in a significant manner the startle response amplitude |  |
| CN1C(=O)CN=C(c2ccccc2)c2cc(Cl)ccc21 [diazepam] |  | reduces in a significant manner the startle response amplitude |
